Assay results published in patent US11959486B2, “Stable liquid formulation of AMG 416 (etelcalcetide)” (AMGEN INC., priority 2013, dated 2024).
Read-outs that look alike come from different tables or passages of the source.

Details: 5 mg/mL
Protocol: In this study, the effects of various pharmaceutical excipients on the stability of AMG 416 in liquid formulation were determined. A 10 mg/mL solution of AMG 416 and stock solutions of mannitol, glycine, arginine, NaCl and Na2SO4 at 2× isotonic concentrations were prepared. The pH of the AMG 416 solution and the five excipient solutions and deionized water separately were adjusted to pH 3.5 using HCl/NaOH. 500 μL aliquots of each of the six solutions were added to glass vials and 500 μL of the AMG 416 solution was added to the same vials and mixed well. This was performed in triplicate to provided eighteen sample vials, each containing 5 mg/mL AMG 416 and an isotonic concentration of the excipient (or deionized water). This was repeated with a set of solutions adjusted to pH 4.5, providing a further eighteen sample vials. The samples were incubated and removed for HPLC analysis at relevant time points.

Which “Extent of degradation at 56 days” value (Arg, pH 3.5, 2-8° C.) does the source give for `CC(=O)N[C@H](CSSC[C@H](N)C(=O)O)C(=O)N[C@H](C)C(=O)N[C@H](CCCNC(=N)N)C(=O)N[C@H](CCCNC(=N)N)C(=O)N[C@H](CCCNC(=N)N)C(=O)N[C@H](C)C(=O)N[C@H](CCCNC(=N)N)C(N)=O` [AMG 416, N-acetyl-D-cysteinyl-D-alanyl-D-arginyl-D-arginyl-D-arginyl-D-alanyl-D-arginamide disulfide with L-cysteine] here?
The value was 0.0%.

What about the “Extent of degradation at 56 days” value (Arg, pH 3.5, 40° C.) of the same compound?
Its value is 28%.

And the “Extent of degradation at 56 days” value (Arg, pH 3.5, RT)?
Its value is 0.6%.

What about the “Predicted extent of degradation After 2 Year Storage at Room Temperature” value (shortened to “Predicted extent”) (Arg, pH 3.5, from 2-8° C. data) of the same compound?
The value was 2%.

And the “Predicted extent” value (Arg, pH 3.5, from 40° C. data)?
Its value is 90%.

And the “Predicted extent” value (Arg, pH 3.5, from RT data)?
The value was 7%.

What about the “Extent of degradation at 56 days” value (Arg, pH 4.5, 2-8° C.) of the same compound?
The value was 0.5%.

What about the “Extent of degradation at 56 days” value (Arg, pH 4.5, 40° C.) of the same compound?
The value was 67%.

What about the “Extent of degradation at 56 days” value (Arg, pH 4.5, RT) of the same compound?
Its value is 29%.

What about the “Predicted extent” value (Arg, pH 4.5, from 2-8° C. data) of the same compound?
Its value is 27%.

And the “Predicted extent” value (Arg, pH 4.5, from 40° C. data)?
The value was >100%.

What about the “Predicted extent” value (Arg, pH 4.5, from RT data) of the same compound?
The value was >100%.

What about the “Extent of degradation at 56 days” value (DI Water, pH 3.5, 2-8° C.) of the same compound?
The value was 0.0%.

And the “Extent of degradation at 56 days” value (DI Water, pH 3.5, 40° C.)?
Its value is 8.2%.

What about the “Extent of degradation at 56 days” value (DI Water, pH 3.5, RT) of the same compound?
The value was 1.0%.

And the “Predicted extent” value (DI Water, pH 3.5, from 2-8° C. data)?
Its value is 1%.

And the “Predicted extent” value (DI Water, pH 3.5, from 40° C. data)?
Its value is 27%.

What about the “Predicted extent” value (DI Water, pH 3.5, from RT data) of the same compound?
The value was 13%.

And the “Extent of degradation at 56 days” value (DI Water, pH 4.5, 2-8° C.)?
Its value is 0.7%.

And the “Extent of degradation at 56 days” value (DI Water, pH 4.5, 40° C.)?
Its value is 24%.

What about the “Extent of degradation at 56 days” value (DI Water, pH 4.5, RT) of the same compound?
The value was 3.6%.

And the “Predicted extent” value (DI Water, pH 4.5, from 2-8° C. data)?
Its value is 35%.

What about the “Predicted extent” value (DI Water, pH 4.5, from 40° C. data) of the same compound?
Its value is 77%.

And the “Predicted extent” value (DI Water, pH 4.5, from RT data)?
Its value is 47%.

What about the “Extent of degradation at 56 days” value (Gly, pH 3.5, 2-8° C.) of the same compound?
The value was 0.0%.

What about the “Extent of degradation at 56 days” value (Gly, pH 3.5, 40° C.) of the same compound?
Its value is 17%.

And the “Extent of degradation at 56 days” value (Gly, pH 3.5, RT)?
Its value is 0.6%.

What about the “Predicted extent” value (Gly, pH 3.5, from 2-8° C. data) of the same compound?
The value was 3%.

And the “Predicted extent” value (Gly, pH 3.5, from 40° C. data)?
Its value is 55%.

What about the “Predicted extent” value (Gly, pH 3.5, from RT data) of the same compound?
The value was 8%.

And the “Extent of degradation at 56 days” value (Gly, pH 4.5, 2-8° C.)?
Its value is 0.6%.

And the “Extent of degradation at 56 days” value (Gly, pH 4.5, 40° C.)?
The value was 28%.

What about the “Extent of degradation at 56 days” value (Gly, pH 4.5, RT) of the same compound?
Its value is 6.4%.

What about the “Predicted extent” value (Gly, pH 4.5, from 2-8° C. data) of the same compound?
The value was 31%.

And the “Predicted extent” value (Gly, pH 4.5, from 40° C. data)?
Its value is 90%.

What about the “Predicted extent” value (Gly, pH 4.5, from RT data) of the same compound?
Its value is 83%.

What about the “Extent of degradation at 56 days” value (Mannitol, pH 3.5, 2-8° C.) of the same compound?
The value was 0.0%.

And the “Extent of degradation at 56 days” value (Mannitol, pH 3.5, 40° C.)?
Its value is 4.9%.

What about the “Extent of degradation at 56 days” value (Mannitol, pH 3.5, RT) of the same compound?
Its value is 0.5%.

And the “Predicted extent” value (Mannitol, pH 3.5, from 2-8° C. data)?
Its value is 0%.

What about the “Predicted extent” value (Mannitol, pH 3.5, from 40° C. data) of the same compound?
The value was 16%.

What about the “Predicted extent” value (Mannitol, pH 3.5, from RT data) of the same compound?
The value was 7%.

And the “Extent of degradation at 56 days” value (Mannitol, pH 4.5, 2-8° C.)?
The value was 0.5%.

What about the “Extent of degradation at 56 days” value (Mannitol, pH 4.5, 40° C.) of the same compound?
The value was 23%.

And the “Extent of degradation at 56 days” value (Mannitol, pH 4.5, RT)?
Its value is 2.2%.

What about the “Predicted extent” value (Mannitol, pH 4.5, from 2-8° C. data) of the same compound?
The value was 28%.

And the “Predicted extent” value (Mannitol, pH 4.5, from 40° C. data)?
The value was 75%.

What about the “Predicted extent” value (Mannitol, pH 4.5, from RT data) of the same compound?
The value was 28%.

What about the “Extent of degradation at 56 days” value (Na2SO4, pH 3.5, 2-8° C.) of the same compound?
Its value is 0.0%.

And the “Extent of degradation at 56 days” value (Na2SO4, pH 3.5, 40° C.)?
The value was 9.4%.

What about the “Extent of degradation at 56 days” value (Na2SO4, pH 3.5, RT) of the same compound?
The value was 0.4%.

What about the “Predicted extent” value (Na2SO4, pH 3.5, from 2-8° C. data) of the same compound?
Its value is 2%.

And the “Predicted extent” value (Na2SO4, pH 3.5, from 40° C. data)?
The value was 31%.

And the “Predicted extent” value (Na2SO4, pH 3.5, from RT data)?
Its value is 5%.

And the “Extent of degradation at 56 days” value (Na2SO4, pH 4.5, 2-8° C.)?
Its value is 0.4%.

And the “Extent of degradation at 56 days” value (Na2SO4, pH 4.5, 40° C.)?
Its value is 30%.

What about the “Extent of degradation at 56 days” value (Na2SO4, pH 4.5, RT) of the same compound?
The value was 51%.

And the “Predicted extent” value (Na2SO4, pH 4.5, from 2-8° C. data)?
Its value is 22%.

What about the “Predicted extent” value (Na2SO4, pH 4.5, from 40° C. data) of the same compound?
The value was 98%.

What about the “Predicted extent” value (Na2SO4, pH 4.5, from RT data) of the same compound?
Its value is >100%.

And the “Extent of degradation at 56 days” value (NaCl, pH 3.5, 2-8° C.)?
Its value is 0.1%.

What about the “Extent of degradation at 56 days” value (NaCl, pH 3.5, 40° C.) of the same compound?
The value was 3.0%.

And the “Extent of degradation at 56 days” value (NaCl, pH 3.5, RT)?
Its value is 0.3%.

And the “Predicted extent” value (NaCl, pH 3.5, from 2-8° C. data)?
The value was 4%.

What about the “Predicted extent” value (NaCl, pH 3.5, from 40° C. data) of the same compound?
Its value is 10%.

And the “Predicted extent” value (NaCl, pH 3.5, from RT data)?
Its value is 4%.

What about the “Extent of degradation at 56 days” value (NaCl, pH 4.5, 2-8° C.) of the same compound?
The value was 1.1%.

And the “Extent of degradation at 56 days” value (NaCl, pH 4.5, 40° C.)?
The value was 18%.

And the “Extent of degradation at 56 days” value (NaCl, pH 4.5, RT)?
Its value is 1.8%.

What about the “Predicted extent” value (NaCl, pH 4.5, from 2-8° C. data) of the same compound?
Its value is 56%.

And the “Predicted extent” value (NaCl, pH 4.5, from 40° C. data)?
Its value is 58%.

And the “Predicted extent” value (NaCl, pH 4.5, from RT data)?
Its value is 24%.
